Data taken from article PMC9854712 (Antioxidants, 2023).
Like-named read-outs stand apart in the source and are kept apart here.

Columns and labels:
[1] = system: MDA-MB-231 cells; test: MTT cell viability assay, MDA-MB-231; format: cell-based; settings: Homo sapiens, MDA-MB-231, 48 h, read-out: Cell growth % at 10 µM, MDA-MB-231
Protocol: (§1) The cell lines were obtained from the American Type Culture Collection (ATCC). Five tumor cell lines (MDA-MB-231, MCF-7, HCT116, HTB-54, and DU-145) and two non-tumorigenic cells (184B5 and BEAS-2B) were grown in RPMI 1640 medium (Gibco), and the HT-29 tumor cell line was grown in McCoy’s medium. Both mediums were supplemented with 10% fetal bovine serum (FBS; Gibco) and 1% antibiotics (10.00 units/mL penicillin and 10.00 μg/mL streptomycin; Gibco). Cells were preserved in tissue culture flasks at 37 °C and 5% CO2. The culture medium was replaced every three days.
(§2) The effect of each compound on cell viability was tested using the MTT assay. […] Selected compounds were then tested at seven different concentrations (0.5–100 μM) in MCF-7, HCT116, HT-29, HTB-54, 184B5 and BEAS-2B cells. Cells were seeded at 10^4 per well onto flat-bottomed 96-well culture plates. They were treated with either DMSO or increasing concentration of the corresponding compound for 48 h. Then, they were incubated with 20 μL of 3-(4,5-dimethylthiazol-2-yl)-2,5-diphenyltetrazolium bromide (MTT) (2 mg /mL stock; Aldrich) for 2,5 h and analyzed for their ability to generate a purple formazan dye. These formazan crystals were dissolved in 50 μL of DMSO. The absorbance was measured at a wavelength of 550 nm and the ratio of viable cells was calculated.
(§3) Results are expressed as cell viability % at 10 μM. Selectivity index were calculated as the ratio of the IC50 values determined for the non-malignant and the tumor cells in breast (IC50 (184B5)/IC50 (MCF-7)) and lung (IC50 (BEAS-2B)/IC50 (HTB-54)) cell lines. Data were obtained from at least three independent experiments performed in triplicates.

[2] = molecular target: T1, AChE (Rattus norvegicus, UniProt P37136); test: AChE inhibition by Ellman's method (rat frontal cortex homogenate); format: biochemical
T1 construct: from tissue; host or cells: frontal cortex of male Wistar rats (crude homogenate)
T1 sequence (P37136 32-614): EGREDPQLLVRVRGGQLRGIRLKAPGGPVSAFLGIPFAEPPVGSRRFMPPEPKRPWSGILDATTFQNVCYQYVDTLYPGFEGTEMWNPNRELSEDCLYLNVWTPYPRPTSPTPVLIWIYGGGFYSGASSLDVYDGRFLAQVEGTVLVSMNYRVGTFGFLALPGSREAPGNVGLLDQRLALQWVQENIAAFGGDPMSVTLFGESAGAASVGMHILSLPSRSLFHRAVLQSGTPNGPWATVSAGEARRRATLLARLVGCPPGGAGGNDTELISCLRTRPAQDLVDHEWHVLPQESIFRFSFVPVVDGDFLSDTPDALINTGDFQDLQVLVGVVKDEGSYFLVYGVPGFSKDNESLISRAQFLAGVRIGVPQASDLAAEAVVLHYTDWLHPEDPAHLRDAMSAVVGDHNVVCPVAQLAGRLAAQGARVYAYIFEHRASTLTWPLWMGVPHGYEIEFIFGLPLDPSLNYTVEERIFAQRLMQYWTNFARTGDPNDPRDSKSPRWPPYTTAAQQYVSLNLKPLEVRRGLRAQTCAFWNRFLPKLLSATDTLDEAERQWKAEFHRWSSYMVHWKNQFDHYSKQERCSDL
Protocol: Frontal cortex tissue obtained from male Wistar rats was homogenized in 39 volumes of 75 mM sodium phosphate buffer (pH 7.4). A mixture of 260 μL containing the compounds assessed, acetylthiocholine iodide and 5 μL tissue homogenate was incubated for 8 min. The reaction was then terminated by adding 50 μL 3% (w/v) sodium dodecyl sulphate followed by 50 μL 0.2% (w/v) 5,5′-dithio-bis(2-nitrobenzoic) acid to produce the yellow anion of 5-thio-2-nitro-benzoic-acid. The extent of the color production was measured spectrophotometrically at 405 nm using Multiskan Ex (Thermo Electron Corporation). […] Results are expressed as the mean ± SD and each experiment was repeated three times.

[3] = system: 184B5 cells; test: MTT cell viability assay, 184B5 (non-tumorigenic); format: cell-based; settings: Homo sapiens, 48 h, nonmalignant mammary gland
Protocol: as §1, §2, §3

[4] = system: HT-29 cells; test: MTT cell viability assay, HT-29; format: cell-based; settings: Homo sapiens; for viability at 10 µM: HT-29, 10 µM, 48 h, read-out: Cell growth % at 10 µM, HT-29
Protocol: as §1, §2, §3

[5] = system: BEAS-2B cells; test: MTT cell viability assay, BEAS-2B (non-tumorigenic); format: cell-based; settings: Homo sapiens, 48 h, nonmalignant bronchial epithelium
Protocol: as §1, §2, §3

[6] = system: DU-145 cells; test: MTT cell viability assay, DU-145; format: cell-based; settings: Homo sapiens, DU-145, 48 h, read-out: Cell growth % at 10 µM, DU-145
Protocol: as §1, §2, §3

[7] = system: HTB-54 cells; test: MTT cell viability assay, HTB-54; format: cell-based; settings: for viability at 10 µM: read-out: Cell growth % at 10 µM, HTB-54
Protocol: as §1, §2, §3

[8] = system: MCF-7 cells; test: MTT cell viability assay, MCF-7; format: cell-based
Protocol: as §1, §2, §3

[9] = system: HCT116 cells; test: MTT cell viability assay, HCT116; format: cell-based; settings: Homo sapiens, HCT-116, 48 h
Protocol: as §1, §2, §3

[10] = system: HTB-54, DU-145, HT-29 and MDA-MB-231 cancer cell lines; test: cells; format: cell-based; settings: against the panel of the four cancer cell lines
Protocol: as §1, §2
As a first approach, all the compounds were tested in vitro against lung (HTB-54), prostatic (DU-145), colon (HT-29), and triple-negative breast (MDA-MB-231) cancer cell lines at two concentrations (50 and 10 µM) for 48 h. Then, the MTT colorimetric assay was used to evaluate cell proliferation after the treatment. The data are expressed as the percentage of cell growth ± SD in at least three independent experiments performed in quadruplicates (Table S1).

[11] = in vitro
Protocol: Franz diffusion cells (Microette 8910130, Hanson Research) were employed to perform this assay. The compounds were dissolved in DMSO at 5 mg/mL and diluted to 500 µg/mL with phosphate-buffered saline (PBS)/EtOH (7:3) to make a stock solution. A total of 10 µL of porcine brain lipid (PBL) diluted in dodecane solution (20 mg/mL) was spread onto a PVDF membrane that was placed between the donor and acceptor compartments, forming a sandwich structure. Then, 4.5 mL of PBS/EtOH (7:3) was added to the acceptor compartment and 700 µL of the stock solution was added to the donor cell. […] The concentration of the compound was calculated from the standard curve and expressed as permeability (Pe) by the following formula [84]:Permeability (cm/s): Pe = {−ln [1 − CA(t)/Ceq]}/[A ∗ (1/VD + 1/VA) ∗ t]
A = filter area ([…]), VD = donor cell volume (0.7 mL), VA = acceptor cell volume (4.5 mL), t = incubation time, CA (t) = compound concentration in acceptor cell at time t, CD (t) = compound concentration in donor cell at time t, and Ceq = [CD(t) ∗ VD + […] ∗ VA]/(VD + VA).
Every sample was analyzed at least in duplicate and the data were reported as mean ± SD.

[12] = system: panel of 60 human tumor cell lines; parameters: method as in PMID 19549304; settings: same cell line panel; cited from earlier work
[13] = system: HT-29 cells; settings: parent NSAID; cited from earlier work

SMILES | viability at 10 µM [1] | inhibition at 1 µM ([2]; at 10^−6 M, Ellman's method) | viability at 10 µM [4] | viability at 10 µM [6] | viability at 10 µM ([7]; HTB-54, 48 h, MTT) | other results
C=CC[Se]C(=O)C(C)c1ccc2cc(OC)ccc2c1 [Compound 16a, Se-allyl (S)-2-(6-methoxynaphtalen-2-yl)propaneselenoate] | 33.8 ± 5.6% | 20.3 ± 4.2% | 49.9 ± 5.6% | 18.8 ± 6.3% | 30.9 ± 6.7% | IC50 [3]: 11.1 ± 1.1 µM; IC50 ([4]; HT-29, 48 h): 9.4 ± 0.6 µM; IC50 [5]: 14.7 ± 8.7 µM; IC50 ([7]; HTB-54, MTT, 48 h): 9.9 ± 0.3 µM; SI (lung) ([7]; IC50 (BEAS-2B)/IC50 (HTB-54)): 1.5; IC50 ([8]; Homo sapiens, MCF7, MTT, 48 h): 10.9 ± 1.3 µM; SI (breast) ([8]; IC50 (184B5)/IC50 (MCF-7)): 1.0; IC50 [9]: 27.1 ± 2.7 µM; viability at 10 µM [10]: < 55%
C=CC[Se]C(=O)c1sccc1Cl [Compound 10a, Se-allyl 3-chlorothiophene-2-carboselenoate] | 41.3 ± 3.5% | 42.5% | 61.5 ± 17.6% | 33.4 ± 6.4% | 27.1 ± 11.2% | IC50 [2]: 2.4 ± 1.2 µM; % AChE Inhibition ([2]; at 10^−6 M, Ellman's method): 42.5 ± 6.4%; Papp at 20 h, 500 µg/mL ([11]; PAMPA): 38.6 ± 1.3 ×10⁻⁶ cm/s; fold higher Pe compared to galantamine ([11]; PAMPA-BBB): 3 fold; Pe ± SD ([11]; PAMPA-BBB, porcine brain lipid, 20 h, 25 °C): 38.63 ×10⁻⁶ cm/s; BBB Permeation (Experimental) ([11]; class from PAMPA-BBB Pe): High (High BBB permeation predicted; Pe (10^−6 cm s^−1) > 4.0)
O=C1[O][Pt]2([NH][C@@H]3CCCC[C@H]3[NH]2)[O]C1=O [oxaliplatin] | – | – | – | – | – | GI50 [12]: 2.89 µM
CC(C)Cc1ccc(C(C)C(=O)O)cc1 (stereo not drawn) [Ibuprofen, 2-(4-isobutylphenyl) propanoic acid] | – | – | – | – | – | IC50 [13]: > 50 µM
C=CC[Se]C(=O)c1ccccc1O [Compound 13a, Se-allyl 2-hydroxybenzoselenoate] | 77.1 ± 12.6% | 51.8 ± 4% | 88.8 ± 8.6% | 29.5 ± 4.3% | 40.9 ± 4.9% | IC50 [2]: 5.2 ± 2.3 µM; stability during the PAMPA-BBB experiment ([11]; observation in words): signs of degradation
COc1cc2ncnc(Nc3ccc(F)c(Cl)c3)c2cc1OCCCN1CCOCC1 [gefitinib] | – | – | – | – | – | GI50 [12]: 3.24 µM
C#CC[Se]C(=O)c1ccccc1Cl [Compound 3b, Se-prop-2-ynyl 2-chlorobenzoselenoate] | 93.2 ± 10.2% | 23.7 ± 9% | 81.8 ± 15.2% | 41.6 ± 3.5% | > 100% | –
C#CC[Se]C(=O)C12CC3CC(CC(C3)C1)C2 [Compound 1b, Se-prop-2-ynyl adamantane-1-carboselenoate] | 71.3 ± 8% | 18 ± 7.9% | 87.9 ± 12.1% | 62.7 ± 7.7% | 86 ± 11.6% | –
